Format in all cases: biochemical
One experiment has as its target T1, Sulf-2 (Homo sapiens, UniProt Q8IWU5).
T1 construct: host or cells: 293T cells, transiently transfected
Put plainly: Inhibition of Sulf-2-catalysed desulfation of 4-MUS to fluorescent MU. Particulars: for inhibition at 1000 µM: 1 mM compound, 4-MUS substrate, means of two or more determinations, read-out: Sulf-2% inh @ 1 mM; for IC50: non-linear regression, 7 inhibitor concentrations in duplicate, mean ± SEM. Here is the method:
(§1) Compounds were assayed for their ability to inhibit the Sulf-2-catalysed desulfation of 4-methylumbelliferyl sulfate (4-MUS) to the fluorescent 4-methylumbelliferone (MU). To determine their sulfatase selectivity, inhibition of aryl sulfatases A (ARSA) and B (ARSB) was also assessed. To date no suitable benchmark inhibitors of these sulfatase have been reported. […] In the majority of cases the presence of a substituent on the B-ring was detrimental to Sulf-2 inhibition when compared with unsubstituted biphenyl sulfamate 76. Aminosulfates 54 and 62 and carboxylic acid 15 retained potency. […] Compounds 8, 10, 15, 50 and 51 were also relatively potent ARSA inhibitors. […] Aminosulfates 56 and 63 were the best Sulf-2 inhibitors lacking a trichloroethylsulfamate group.
1 – Biological assay protocols
Compounds were screened using 4-MUS as a substrate for Sulf-2 according to a protocol described by Morimoto-Tomita et al.1 Briefly 293T cells were transiently transfected with pcDNA3.1/Myc-His(-)-HSulf-2 DNA (Addgene) and TransIT-LT1 Transfection Reagent (Mirus) using a transfection mixture at the ratio 1:3 (µg DNA:
µL transfection reagent) in Opti-MEM I reduced serum medium (Gibco). Conditioned medium containing Sulf-2 was collected after 3 days and bound to HIS-Select Nickel affinity gel (Sigma) overnight at 4 °C. Beads were washed three times with washing buffer containing 50 mM HEPES (pH 7.5), 300 mM NaCl, 0.05% Tween 20, followed by washing once with washing buffer containing no tween. Beads were suspended in 50 mM Hepes (pH 7.5) and used in inhibition assays. 20 μL of bead slurry was incubated with 1 mM compound (in DMSO) plus 10X reaction buffer (500 mM HEPES pH 7.5, 100 mM CaCl2) for 1 h at 37 °C. The reaction was started by the addition of 20 μL of 20 mM 4-MUS (final concentration of 8 mM) and incubated at 37 °C for 1 h. The reaction was stopped with 100 μL 1 M Tris buffer (pH 10.4) and read at 460 nm following excitation at 355 nm in FLUOstar Omega plate reader (BMG Labtech) using Omega data analysis software. […]

A further experiment has as its target T2, aryl sulfatase A (ARSA) (Homo sapiens, UniProt P15289).
T2 construct: purchased R & D Systems
T2 sequence (P15289 19-507): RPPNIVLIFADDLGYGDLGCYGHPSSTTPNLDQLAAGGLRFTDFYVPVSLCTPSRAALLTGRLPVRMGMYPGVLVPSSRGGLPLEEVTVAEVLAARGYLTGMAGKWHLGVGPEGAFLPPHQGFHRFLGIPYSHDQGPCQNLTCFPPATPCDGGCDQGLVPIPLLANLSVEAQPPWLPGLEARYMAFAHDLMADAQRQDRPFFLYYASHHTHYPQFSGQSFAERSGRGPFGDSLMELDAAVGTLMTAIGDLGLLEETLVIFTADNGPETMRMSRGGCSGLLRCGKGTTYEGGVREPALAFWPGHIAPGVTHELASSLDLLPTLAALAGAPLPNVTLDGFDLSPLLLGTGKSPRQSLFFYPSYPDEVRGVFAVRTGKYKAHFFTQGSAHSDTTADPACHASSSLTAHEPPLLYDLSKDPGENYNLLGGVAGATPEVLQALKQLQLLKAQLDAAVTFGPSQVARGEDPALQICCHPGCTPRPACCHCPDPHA
Put plainly: ARSA inhibition assay with 4-MUS substrate. Particulars: for inhibition at 1000 µM: 1 mM compound, 4-MUS substrate, means of two or more determinations, read-out: ARSA% inh @ 1 mM; for IC50: non-linear regression, 7 inhibitor concentrations in duplicate, mean ± SEM. Here is the method:
as §1
(§2) 1 – Biological assay protocols […]
(§3) Omega data analysis software.
(§4) ARSA and ARSB assay protocols
(§5) Compounds were screened in a 96-well black plate (Sterilin) using 4-MUS as a substrate, using 50 μL reaction mixture containing 40 ng of the commercially available enzymes (ARSA or ARSB from R & D Systems), 50 mM HEPES (pH = 4.5), 10 mM CaCl2, 1 mM test compound (dissolved in DMSO; final concentration of DMSO in reaction = 2%), and H2O (45 μL). The assay mixture was incubated for 1 h at 37 °C, followed by addition of 5 μL of 4-MUS (Km = 1.6 mM for ARSA and 612 μM for ARSB), and incubation for a further 1 h at 37 °C. The reaction was stopped with 100 μL of 1 M Tris (pH = 10.5) and read at 460 nm following excitation at 355 nm in FLUOstar Omega plate reader (BMG Labtech) using Omega data analysis software.

The target in the next experiment is T3, aryl sulfatase B (ARSB) (Homo sapiens, UniProt P15848).
T3 construct: purchased R & D Systems
T3 sequence (P15848 37-533, species assumed): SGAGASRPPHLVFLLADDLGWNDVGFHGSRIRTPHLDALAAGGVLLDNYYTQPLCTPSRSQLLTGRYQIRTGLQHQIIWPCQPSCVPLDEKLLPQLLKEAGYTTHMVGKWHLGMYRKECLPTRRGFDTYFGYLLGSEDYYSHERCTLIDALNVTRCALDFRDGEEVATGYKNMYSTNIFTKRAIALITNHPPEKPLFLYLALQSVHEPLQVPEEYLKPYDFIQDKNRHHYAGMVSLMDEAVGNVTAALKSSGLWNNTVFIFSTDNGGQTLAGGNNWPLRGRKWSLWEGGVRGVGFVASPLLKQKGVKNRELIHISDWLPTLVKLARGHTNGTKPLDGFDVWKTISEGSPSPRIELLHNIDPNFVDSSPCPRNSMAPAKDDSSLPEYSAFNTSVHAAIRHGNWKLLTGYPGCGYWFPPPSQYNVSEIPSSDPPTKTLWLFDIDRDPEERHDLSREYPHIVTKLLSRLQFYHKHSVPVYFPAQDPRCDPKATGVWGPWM
Put plainly: ARSB inhibition assay with 4-MUS substrate. Particulars: for inhibition at 1000 µM: 1 mM compound, 4-MUS substrate, means of two or more determinations, read-out: ARSB% inh @ 1 mM; for IC50: non-linear regression, 7 inhibitor concentrations in duplicate, mean ± SEM. On the procedure:
as §1, §2, §3, §4, §5

T1 sequence (Q8IWU5 25-870): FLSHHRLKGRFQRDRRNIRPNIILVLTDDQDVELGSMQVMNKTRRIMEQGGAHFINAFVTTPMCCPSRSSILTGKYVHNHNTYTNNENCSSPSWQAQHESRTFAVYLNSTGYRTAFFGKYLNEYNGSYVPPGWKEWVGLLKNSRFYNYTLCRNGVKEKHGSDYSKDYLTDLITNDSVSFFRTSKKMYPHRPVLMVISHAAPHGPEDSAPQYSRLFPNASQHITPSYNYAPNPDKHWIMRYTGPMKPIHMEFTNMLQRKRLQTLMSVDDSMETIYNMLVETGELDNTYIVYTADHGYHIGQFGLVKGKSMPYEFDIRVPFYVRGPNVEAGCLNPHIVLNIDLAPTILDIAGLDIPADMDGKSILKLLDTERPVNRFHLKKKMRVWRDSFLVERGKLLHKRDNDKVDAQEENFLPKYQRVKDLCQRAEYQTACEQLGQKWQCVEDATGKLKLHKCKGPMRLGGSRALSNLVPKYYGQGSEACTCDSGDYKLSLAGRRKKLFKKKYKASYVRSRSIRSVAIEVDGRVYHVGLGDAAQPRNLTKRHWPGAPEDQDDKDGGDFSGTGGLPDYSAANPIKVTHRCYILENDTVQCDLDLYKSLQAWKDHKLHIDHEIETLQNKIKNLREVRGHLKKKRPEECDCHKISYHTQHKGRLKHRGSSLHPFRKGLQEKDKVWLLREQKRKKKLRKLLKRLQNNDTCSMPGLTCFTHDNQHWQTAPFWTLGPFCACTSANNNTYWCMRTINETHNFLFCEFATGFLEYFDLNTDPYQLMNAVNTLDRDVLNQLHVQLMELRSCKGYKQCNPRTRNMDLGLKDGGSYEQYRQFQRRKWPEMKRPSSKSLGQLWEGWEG

With `COC(=O)c1ccccc1-c1cccc(OS(N)(=O)=O)c1` [Compound 8], the inhibition at 1000 µM at Sulf-2 is 20%; on aryl sulfatase A (ARSA), 86%; at aryl sulfatase B (ARSB) it was 0%.
On the same counts, the results for `NS(=O)(=O)Oc1cccc(-c2cccc(C(=O)O)c2)c1` [Compound 9] are 12%, 59% and 0%.
The like results for `NS(=O)(=O)Oc1cccc(-c2ccc(C(=O)O)cc2)c1` [Compound 10] were, in that order, 22%, 85% and 0%.
On the same counts, the results for `Nc1ccccc1-c1cccc(OS(N)(=O)=O)c1` [Compound 11] are 21%, 0% and 0%.
As for `Nc1cccc(-c2cccc(OS(N)(=O)=O)c2)c1` [Compound 12], the inhibition at 1000 µM on Sulf-2 turned out to be 20%; on aryl sulfatase A (ARSA) it was 0%; at aryl sulfatase B (ARSB), 0%.
`Nc1ccc(-c2cccc(OS(N)(=O)=O)c2)cc1` [Compound 13]: the inhibition at 1000 µM amounted to 6% on Sulf-2, 61% at aryl sulfatase A (ARSA) and 0% on aryl sulfatase B (ARSB).
On the same counts, the results for `NS(=O)(=O)Oc1cccc(-c2ccccc2C(=O)O)c1` [Compound 15] are 31%, 98% and 0%.
On the same counts, the results for `Nc1ccccc1Oc1cccc(OS(N)(=O)=O)c1` [Compound 25] are 28%, 75% and 17%.
On the same counts, the results for `Nc1cccc(Oc2cccc(OS(N)(=O)=O)c2)c1` [Compound 26] are 31%, 75% and 0%.
Regarding `Nc1ccc(Oc2cccc(OS(N)(=O)=O)c2)cc1` [Compound 27], the inhibition at 1000 µM on Sulf-2 is 14%; at aryl sulfatase A (ARSA) it was 75%; on aryl sulfatase B (ARSB) it was 0%.
As for `CC(=O)Nc1ccccc1-c1cccc(OS(N)(=O)=O)c1` [Compound 34], the results for the inhibition at 1000 µM at Sulf-2, on aryl sulfatase A (ARSA) and on aryl sulfatase B (ARSB) were 4%, 33% and 0%, respectively.
On the same counts, the results for `CC(=O)Nc1cccc(-c2cccc(OS(N)(=O)=O)c2)c1` [Compound 35] are 8%, 52% and 33%.
On the same counts, the results for `CC(=O)Nc1ccc(-c2cccc(OS(N)(=O)=O)c2)cc1` [Compound 36] are 3%, 0% and 0%.
On the same counts, the results for `CC(=O)Nc1ccccc1Oc1cccc(OS(N)(=O)=O)c1` [Compound 37] are 11%, 29% and 48%.
For the compound `CC(=O)Nc1cccc(Oc2cccc(OS(N)(=O)=O)c2)c1` [Compound 38], the inhibition at 1000 µM at Sulf-2 was determined as 10%; on aryl sulfatase A (ARSA) it was 57%; at aryl sulfatase B (ARSB), 0%.
On the same counts, the results for `CC(=O)Nc1ccc(Oc2cccc(OS(N)(=O)=O)c2)cc1` [Compound 39] are 14%, 45% and 0%.
One may read the IC50 as the midpoint of a concentration-inhibition curve. Consider `NS(=O)(=O)Oc1cccc(-c2cccc(NS(=O)(=O)OCC(Cl)(Cl)Cl)c2)c1` [Compound 50], for which the results for the inhibition at 1000 µM on Sulf-2, at aryl sulfatase A (ARSA) and on aryl sulfatase B (ARSB) were 99%, 92% and 67%, respectively. Moreover, the IC50 against Sulf-2 worked out at 167 ± 5 µM; against aryl sulfatase A (ARSA) it was 55 ± 11 µM; against aryl sulfatase B (ARSB), 130 ± 6 µM.
As for `NS(=O)(=O)Oc1cccc(-c2ccc(NS(=O)(=O)OCC(Cl)(Cl)Cl)cc2)c1` [Compound 51], the figures for the inhibition at 1000 µM on Sulf-2, at aryl sulfatase A (ARSA) and at aryl sulfatase B (ARSB) were 96%, 99% and 68%, respectively. Also, the IC50 against Sulf-2 worked out at 566 ± 28 µM; against aryl sulfatase A (ARSA), 91 ± 4 µM; at aryl sulfatase B (ARSB), 101 ± 8 µM.
Turning to `NS(=O)(=O)Oc1cccc(Oc2cccc(NS(=O)(=O)OCC(Cl)(Cl)Cl)c2)c1` [Compound 52], the inhibition at 1000 µM at Sulf-2 was 100%; at aryl sulfatase A (ARSA), 100%; at aryl sulfatase B (ARSB), 96%.
On to `NS(=O)(=O)Oc1cccc(Oc2ccc(NS(=O)(=O)OCC(Cl)(Cl)Cl)cc2)c1` [Compound 53], for which the inhibition at 1000 µM at Sulf-2 stood at 98%; at aryl sulfatase A (ARSA) it was 96%; on aryl sulfatase B (ARSB), 86%. For the same compound, the figures for the IC50 at Sulf-2, against aryl sulfatase A (ARSA) and at aryl sulfatase B (ARSB) were 390 ± 11 µM, 108 ± 2 µM and 116 ± 10 µM, respectively.
Consider `NS(=O)(=O)Oc1cccc(-c2cccc(NS(=O)(=O)O)c2)c1` [Compound 54], for which the inhibition at 1000 µM at Sulf-2 was 31%; at aryl sulfatase A (ARSA) it was 0%; on aryl sulfatase B (ARSB) it was 0%.
For the compound `NS(=O)(=O)Oc1cccc(-c2ccc(NS(=O)(=O)O)cc2)c1` [Compound 55], the results for the inhibition at 1000 µM at Sulf-2, on aryl sulfatase A (ARSA) and on aryl sulfatase B (ARSB) were 4%, 0% and 0%, respectively.
As for `NS(=O)(=O)Oc1cccc(Oc2cccc(NS(=O)(=O)O)c2)c1` [Compound 56], the figures for the inhibition at 1000 µM on Sulf-2, at aryl sulfatase A (ARSA) and on aryl sulfatase B (ARSB) were 58%, 95% and 85%, respectively.
The like results for `NS(=O)(=O)Oc1cccc(Oc2ccc(NS(=O)(=O)O)cc2)c1` [Compound 57] were, in that order, 13%, 34% and 77%.
The like results for `NS(=O)(=O)Oc1cccc(-c2ccccc2N(S(=O)(=O)OCC(Cl)(Cl)Cl)S(=O)(=O)OCC(Cl)(Cl)Cl)c1` [Compound 60] were, in that order, 10%, 63% and 0%.
Consider `NS(=O)(=O)Oc1cccc(Oc2ccccc2N(S(=O)(=O)OCC(Cl)(Cl)Cl)S(=O)(=O)OCC(Cl)(Cl)Cl)c1` [Compound 61], for which the inhibition at 1000 µM on Sulf-2 amounted to 18%; at aryl sulfatase A (ARSA) it was 82%; on aryl sulfatase B (ARSB) it was 40%.
The like results for `NS(=O)(=O)Oc1cccc(-c2ccccc2NS(=O)(=O)O)c1` [Compound 62] were, in that order, 37%, 26% and 0%.
As to `NS(=O)(=O)Oc1cccc(Oc2ccccc2NS(=O)(=O)O)c1` [Compound 63], the inhibition at 1000 µM at Sulf-2 was found to be 56%; on aryl sulfatase A (ARSA) it was 54%; at aryl sulfatase B (ARSB) it was 93%.
The like results for `NS(=O)(=O)Oc1cccc(Oc2ccccc2C(=O)O)c1` [Compound 73] were, in that order, 10%, 44% and 0%.
Turning to `CN(C)S(=O)(=O)Oc1cccc(-c2ccccc2)c1` [Compound 77], the inhibition at 1000 µM on Sulf-2 stood at 0%.
Same read-out and setting: as for `NS(=O)(=O)Oc1cccc(Oc2ccccc2)c1` [Compound 78], the figure is 32%.
